Legend:
presbyopic subjects [1] = assay: Near vision acuity after topical instillation (near test card at 16 inches; Reading vs. Baseline at 40 cm; onset, duration, Efficacy Index); format: in vivo, human
Text: (§1) Subject is an emmetrope over the age of 45 with a baseline near vision of 20.100 and baseline distance vision of 20.20. Topical administration to the eye of 1% w/v pilocarpine in saline solution results in an improvement of near vision to 20.40 (8a), however this improvement comes at the expense of a reduction in distance vision to 20.100 (8b). […] A proper drug carrier can also have a beneficial effect.
(§2) 1.75% w/v aceclidine was formulated in 0.9% w/v saline with 0.02% w/v BAK. Drops were instilled binocularly into a subject. Near vision testing was performed at 16 inches on a Precision Vision 16″ near test card. All near vision testing was binocular.
(§3) As aceclidine is an […], the clinical effectiveness may vary with different ratios. For the present studies a nearly exact 50:50 ratio of stereoisomers was measured as best determined by polarimetry.
In brief, the score is calculated by multiplying the lines of improvement in near visual acuity by the number of hours the improvement lasts. For example a score of: 5 is equal to +1 lines of improvement in near visual acuity for 5 hours; 10 is equal to +1.5 lines of improvement for 6.7 hours; 15 is equal to 2 lines of improvement for 7.5 hours; 20 is equal to 2.5 lines of improvement for 8 hours; 25 is equal to 3+ lines of improvement for 8.3 hours and 35 is equal to 3.75+ lines of improvement for 9 hours.
2 subjects instilled 2 drops each of the above formulation in each eye about 5 minutes apart.

presbyopic subjects [2] = assay: Distance vision acuity after topical instillation; format: in vivo, human; conditions: baseline distance 20.20
Text: as §1, §2, §3

[3] = 1% w/v pilocarpine or 1.55% w/v aceclidine in saline solution, emmetrope over 45, baseline near 20.100
[4] = 1% w/v pilocarpine or 1.55% w/v aceclidine in saline solution

SMILES | near vision (FIG. 1) (presbyopic subjects [1]; [3]) | near vision (FIG. 1) (presbyopic subjects [1]; 1% w/v pilocarpine with addition of 0.015% w/v tropicamide, baseline near 20.100) | distance vision (FIG. 1) (presbyopic subjects [2]; [4]) | distance vision (FIG. 1) (presbyopic subjects [2]; 1% w/v pilocarpine with addition of 0.015% w/v tropicamide) | time period of near vision improvement (FIG. 1) (presbyopic subjects [1]; 1.55% w/v aceclidine in saline solution) [h] | near vision improvement (presbyopic subjects [1]; 1.75% aceclidine, 2.5% mannitol, 0.01% tropicamide, 5% polysorbate 80) | near vision (FIG. 1) (presbyopic subjects [1]; aceclidine in carrier with 0.042% w/v tropicamide) | near vision (FIG. 1) (presbyopic subjects [1]; aceclidine in carrier: 5.5% HPβCD, 0.75% CMC, 0.25% NaCl, 0.01% BAK)
CC[C@@H]1C(=O)OC[C@@H]1Cc1cncn1C [pilocarpine] | 20.40 | 20.25 | 20.100 | 20.55 |  |  |  | 
CC(=O)OC1CN2CCC1CC2 (racemic) [Aceclidine, aceclidine] | 20.40 |  | without any effect on the baseline distance vision |  | 6 | up to 3 lines of vision acuity | 20.15 | < 20.20
